Assay results: patent US12612410B2 (CHILDREN'S HOSPITAL MEDICAL CENTER, priority 2020, dated 2026)

target: T1, FLT3 R834Q (Homo sapiens, UniProt P36888, R834Q); test: DiscoverX KINOMEscan competition binding, FLT3 R834Q
T1 construct: host or cells: E. coli BL21-derived host (T7 phage) or HEK-293
T1 sequence (P36888 27-993 R834Q): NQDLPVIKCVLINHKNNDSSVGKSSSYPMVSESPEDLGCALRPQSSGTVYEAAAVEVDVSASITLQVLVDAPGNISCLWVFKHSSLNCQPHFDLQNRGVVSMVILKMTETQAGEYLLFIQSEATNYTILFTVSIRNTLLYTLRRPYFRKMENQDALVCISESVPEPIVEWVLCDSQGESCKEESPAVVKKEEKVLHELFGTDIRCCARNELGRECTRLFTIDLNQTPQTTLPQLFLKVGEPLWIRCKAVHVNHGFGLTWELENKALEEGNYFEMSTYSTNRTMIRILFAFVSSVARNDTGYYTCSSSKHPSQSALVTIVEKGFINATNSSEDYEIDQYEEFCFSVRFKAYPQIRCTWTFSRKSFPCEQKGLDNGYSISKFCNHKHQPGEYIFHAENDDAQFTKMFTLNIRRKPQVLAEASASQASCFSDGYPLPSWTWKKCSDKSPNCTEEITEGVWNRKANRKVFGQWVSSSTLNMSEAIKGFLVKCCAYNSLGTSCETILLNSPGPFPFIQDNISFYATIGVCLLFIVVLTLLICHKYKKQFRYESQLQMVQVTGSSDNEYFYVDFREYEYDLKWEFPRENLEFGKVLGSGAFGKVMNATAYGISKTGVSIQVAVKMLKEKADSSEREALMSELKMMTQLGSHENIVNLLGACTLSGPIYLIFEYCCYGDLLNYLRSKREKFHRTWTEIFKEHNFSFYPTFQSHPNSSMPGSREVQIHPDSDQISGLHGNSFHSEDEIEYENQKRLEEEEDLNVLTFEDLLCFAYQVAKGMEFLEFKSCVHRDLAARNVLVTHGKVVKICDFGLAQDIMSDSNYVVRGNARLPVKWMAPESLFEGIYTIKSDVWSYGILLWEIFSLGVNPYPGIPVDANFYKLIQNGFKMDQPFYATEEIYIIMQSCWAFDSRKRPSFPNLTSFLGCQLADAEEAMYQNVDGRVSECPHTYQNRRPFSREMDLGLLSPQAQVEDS
Excerpt: Kinase binding data were obtained for various exemplary compounds prepared according to Examples 1-24 using the DiscoverX KINOMVIEscan® active site-directed competition binding site-directed assay protocol described below. […] As a result, the data report thermodynamic interaction affinities (Kd values), rather than IC50 values that are dependent on ATP concentrations. The assay uses a DNA-tagged version of the protein kinase, and an immobilized ligand bound to a solid support. Compounds that directly or indirectly prevent kinase binding to the immobilized ligand reduce the amount of kinase captured on the solid support, which is detected using an ultra-sensitive qPCR method. Affinity constants reported from the assay have been reported to be independent of the immobilized ligand used that is coupled to the solid support (See supplemental information in Fabian, M. A. et. al., (2005) Nat. Biotechnol. 23, 329-336; Wodicka, L. M. et. al., (2010) Chem. Biol. 17, 1241-1249.)
Kinase-tagged T7 phage strains were prepared in an E. coli host derived from the BL21 strain. E. coli were grown to log-phase and infected with T7 phage and incubated with shaking at 32° C. until lysis. The lysates were centrifuged and filtered to remove cell debris. The remaining kinases were produced in HEK-293 cells and subsequently tagged with DNA for qPCR detection. Streptavidin-coated magnetic beads were treated with biotinylated small molecule ligands for 30 minutes at room temperature to generate affinity resins for kinase assays. The liganded beads were blocked with excess biotin and washed with blocking buffer (SeaBlock (Pierce), 1% BSA, 0.05% Tween 20, 1 mM DTT) to remove unbound ligand and to reduce non-specific binding. Binding reactions were assembled by combining kinases, liganded affinity beads, and test compounds in 1× binding buffer (20% SeaBlock, 0.17×PBS, 0.05% Tween 20, 6 mM DTT). Test compounds were prepared as 111× stocks in 100% DMSO. Kds were determined using an 11-point 3-fold compound dilution series with three DMSO control points. All compounds for Kd measurements are distributed by acoustic transfer (non-contact dispensing) in 100% DMSO. The compounds were then diluted directly into the assays such that the final concentration of DMSO was 0.9%. All reactions were performed in polypropylene 384-well plates. Each was a final volume of 0.02 mL. The assay plates were incubated at room temperature with shaking for 1 hour and the affinity beads were washed with wash buffer (1×PBS, 0.05% Tween 20). The beads were then re-suspended in elution buffer (1×PBS, 0.05% Tween 20, 0.5 μM nonbiotinylated affinity ligand) and incubated at room temperature with shaking for 30 minutes. The kinase concentration in the eluates was measured by qPCR.
Binding constants (Kds) were calculated with a standard dose-response curve using the Hill equation. The Hill Slope was set to −1. Curves were fitted using a non-linear least square fit with the Levenberg-Marquardt algorithm.

SMILES | Kd [nM]
CC1(c2cn3c(-c4cccc(N[C@H]5CNC[C@@H]5F)n4)cnc3cn2)CC1 [Compound 1, N-((3S,4S)-4-fluoropyrrolidin-3-yl)-6-(6-(1-methylcyclopropyl)imidazo[1,2-a]pyrazin-3-yl)pyridin-2-amine] | 0.17
CC1(c2cn3c(-c4cccc(N[C@@H]5CCNC5)n4)cnc3cn2)CC1 [Compound 3, (R)-6-(6-(1-methylcyclopropyl)imidazo[1,2-a]pyrazin-3-yl)-N-(pyrrolidin-3-yl)pyridin-2-amine] | 0.14
CC1(c2cn3c(-c4cccc(N[C@H]5CNCC56CC6)n4)cnc3cn2)CC1 [Compound 5, (R)-N-(6-(6-(1-methylcyclopropyl)imidazo[1,2-a]pyrazin-3-yl)pyridin-2-yl)-5-azaspiro[2.4]heptan-7-amine] | 0.13
FC(F)(F)C1(c2cn3c(-c4cccc(N[C@@H]5CCNC5)n4)cnc3cn2)CC1 [Compound 10, (R)-N-(pyrrolidin-3-yl)-6-(6-(1-(trifluoromethyl)cyclopropyl)imidazo[1,2-a]pyrazin-3-yl)pyridin-2-amine] | 0.81
FC(F)c1cn2c(-c3cccc(N[C@H]4CNC[C@@H]4F)n3)cnc2cn1 [Compound 16, 6-(6-(difluoromethyl)imidazo[1,2-a]pyrazin-3-yl)-N-((3S,4S)-4-fluoropyrrolidin-3-yl)pyridin-2-amine] | 1.3
FC(F)c1cn2c(-c3cccc(N[C@H]4CNCC[C@@H]4F)n3)cnc2cn1 [Compound 25, 6-(6-(difluoromethyl)imidazo[1,2-a]pyrazin-3-yl)-N-((3S,4S)-4-fluoropiperidin-3-yl)pyridin-2-amine] | 0.47
CC(C)(O)c1cn2c(-c3cccc(N[C@H]4CNCC[C@@H]4F)n3)cnc2cn1 [Compound 31, 2-(3-(6-(((3S,4S)-4-fluoropiperidin-3-yl)amino)pyridin-2-yl)imidazo[1,2-a]pyrazin-6-yl)propan-2-ol] | 2.2
FC(F)(F)COc1cn2c(-c3cccc(N[C@@H]4CCNC4)n3)cnc2cn1 [Compound 38, (R)-N-(pyrrolidin-3-yl)-6-(6-(2,2,2-trifluoroethoxy)imidazo[1,2-a]pyrazin-3-yl)pyridin-2-amine] | 1.2

More lines, now with the values ahead:

Kd [nM] | SMILES
4.3 | CC(C)(O)c1cn2c(-c3cccc(N[C@@H]4CCCNC4)n3)cnc2cn1 [Compound 30, (R)-2-(3-(6-(piperidin-3-ylamino)pyridin-2-yl)imidazo[1,2-a]pyrazin-6-yl)propan-2-ol]
0.2 | F[C@H]1CNC[C@@H]1Nc1cccc(-c2cnc3cnc(C4CC4)cn23)n1 [Compound 50, 6-(6-cyclopropylimidazo[1,2-a]pyrazin-3-yl)-N-((3S,4S)-4-fluoropyrrolidin-3-yl)pyridin-2-amine]
0.19 | Cn1cc(-c2cn3c(-c4cccc(N[C@H]5CNC[C@@H]5F)n4)cnc3cn2)cn1 [Compound 52, N-((3S,4S)-4-fluoropyrrolidin-3-yl)-6-(6-(1-methyl-1H-pyrazol-4-yl)imidazo[1,2-a]pyrazin-3-yl)pyridin-2-amine]
